Where two headings read alike, the source gives them in different places.
Legend:
MYC mRNA = MYC mRNA expression, qRT-PCR; format: cell-based, human; settings: for IC50: Homo sapiens, read-out: IC50, inhibition of MYC mRNA expression; for log2FC (MYC): 2.5 μM, 6 hr, log2 fold change relative to DMSO
Protocol: (§1) Total RNA was prepared with an RNeasy Mini Kit (Qiagen, Inc.; Hilden, Germany) with on column DNAse digestion and submitted to Ocean Ridge Biosciences (Palm Beach Gardens, FL) for sequencing and mapping. The data in RPKM for each gene with compound treatment was compared to DMSO treatment, and log2 fold changes were used for further analysis. Rank ordered gene lists were used for Gene Set Enrichment Analysis ([Subramanian et al., 2005]). RNA preparation, cDNA synthesis, and qRT-PCR were performed as described ([Mertz et al., 2011]). For dose titration experiments, cells in 96 -well plates were lysed in lysis buffer (1% Triton X-100, […] pH 2.5) and used directly for cDNA synthesis and qRT-PCR. Primer sequences can be found in Supplementary file 1.

THP-1 = test: Viability, resazurin, 6 days; format: cell-based; settings: Homo sapiens, 144 h, THP-1, AML
Protocol: (§2) Cells were plated at 5000–10000 cells per well of 96-well plates containing titrations of the compounds as indicated. After incubation, the cells were incubated with 500 μg/ml resazurin (Sigma) in PBS for 2–8 hr, and fluorescence was measured (Ex 530 nm, Em 590 nm). Cell cycle analysis was performed as described previously ([Mertz et al., 2011]). For visualization, DNA content histograms were generated with GraphPad Prism. Dose-response curves were generated by plotting the normalized percent growth, percent sub-G1 and percent increase in G0/G1 at each dose values. GI50 values were determined as the concentration at which viability was 50% of the DMSO value and calculated by a four-parameter non-linear regression model in GraphPad Prism.

MOLT4 = test: Viability, resazurin, 6 days; format: cell-based; settings: Homo sapiens, MOLT-4, 144 h, MOLT4, ALL
Protocol: as §2

[1] = molecular target: T1, first bromodomain of BRD4 (BRD4-BD1) (Homo sapiens, UniProt O60885); test: AlphaLISA, acetylated peptide binding to BRD4-BD1
T1 construct: the first bromodomain of BRD4 (BRD4-BD1)
Protocol: Compound at varying concentrations were dispensed into 384 well Proxiplates (Perkin Elmer) using Echo technology (Labcyte, Inc.; Sunnyvale, CA). For CBP assays, 0.5 μM His-Flag-tagged CBP bromodomain (amino acids 1082–1197) was incubated with 0.003 μM H4-TetraAc-biotin for 20 min at room temperature in 1x reaction buffer (50 mM HEPES pH 7.5, 1 mM TCEP, 0.069 mM Brij-35, 150 mM NaCl, and 0.1 mg/ml BSA). Streptavidin acceptor beads and nickel donor beads (Perkin Elmer) were added to 15 μg/ml with a Combi Multidrop dispenser. Plates were sealed and incubated at 90 min in the dark at room temperature, and plates were read on an Envision plate reader (Perkin Elmer) according to manufacturer’s instructions. For the BET assays, the protocol was similar except that BET family bromodomains were used at 0.03 μM (BRD4-BD1) and incubated with 0.2 μM H4-TetraAc-biotin for 20 min in reaction buffer (40 mM HEPES pH7.0, 1 mM DTT, 0.069 mM Brij-35, 40 mM NaCl, and 0.1 mg/ml BSA). Streptavidin donor beads and Anti-Flag Acceptor beads (Perkin Elmer) were added to 10 μg/ml, and then plates were sealed and incubated in the dark for 60 min prior to reading on the Envision.

LP-1 = test: Viability, resazurin, 6 days; format: cell-based, human; settings: for GI50: Homo sapiens, 144 h, LP-1, myeloma, 6 days
Protocol: as §2

MOLP-8 = test: Viability, resazurin, 6 days; format: cell-based, human; settings: for GI50: Homo sapiens, 144 h, MOLP-8, myeloma, 6 days
Protocol: as §2

RS4;11 = test: Viability, resazurin, 6 days; format: cell-based, human; settings: for GI50: Homo sapiens, 144 h, RS4;11, ALL, 6 days
Protocol: as §2

OPM2 = test: Viability, resazurin, 6 days; format: cell-based, human; settings: for GI50: Homo sapiens, OPM-2, 144 h, OPM2, myeloma, 6 days
Protocol: as §2

NCI-H929 = test: Viability, resazurin, 6 days; format: cell-based, human; settings: for GI50: Homo sapiens, 144 h, NCI-H929, myeloma, 6 days
Protocol: as §2

RPMI-8226 = test: Viability, resazurin, 6 days; format: cell-based, human; settings: for GI50: Homo sapiens, 144 h, RPMI-8226, myeloma, 6 days
Protocol: as §2

KMS28BM = test: Viability, resazurin, 6 days; format: cell-based, human; settings: for GI50: Homo sapiens, KMS-28BM, 144 h, myeloma, 6 days
Protocol: as §2

KMM-1 = test: Viability, resazurin, 6 days; format: cell-based, human; settings: for GI50: Homo sapiens, 144 h, KMM-1, myeloma, 6 days
Protocol: as §2

AMO-1 = test: Viability, resazurin, 6 days; format: cell-based, human; settings: for GI50: Homo sapiens, AMO1, 144 h, AMO-1, myeloma, 6 days
Protocol: as §2

IRF4 mRNA = IRF4 mRNA expression, qRT-PCR; format: cell-based, human; settings: for IC50: Homo sapiens, read-out: IC50, inhibition of IRF4 mRNA expression; for log2FC (IRF4): 2.5 μM, 6 hr, log2 fold change relative to DMSO
Protocol: as §1

## CCC(=O)N1CCOc2c(cc(-c3ccc(OC)c(OC)c3)cc2OC[C@H]2CCCN(C)C2)C1 [I-CBP112]
MYC mRNA; OPM-2, OPM2, 6 hr
  IC50: 6100 nM
MYC mRNA; LP-1, 6 hr
  IC50: 11300 nM
THP-1
  GI50: 5350 nM
MOLT4
  GI50: > 20000 nM
[1]
  IC50: 8900 ± 60 nM
LP-1
  GI50: 1510 nM
MOLP-8
  GI50: 3520 nM
RS4;11
  GI50: 15600 nM
OPM2
  GI50: 2820 nM
NCI-H929
  GI50: 3800 nM
RPMI-8226
  GI50: 14600 nM
KMS28BM
  GI50: 4440 nM
KMM-1
  GI50: > 20000 nM
AMO-1
  GI50: 9390 nM
IRF4 mRNA; OPM-2, OPM2, 6 hr
  IC50: 2900 nM
IRF4 mRNA; LP-1, 6 hr
  IC50: 2000 nM

## COc1ccc(CCc2nc3cc(-c4c(C)noc4C)ccc3n2C[C@H](C)N2CCOCC2)cc1Cl [SGC-CBP30]
MYC mRNA; AMO1
  log2FC (MYC): -1.13
MYC mRNA; H929
  log2FC (MYC): -1.24
MYC mRNA; OPM-2, OPM2, 6 hr
  IC50: 2300 nM
MYC mRNA; LP-1, 6 hr
  IC50: 2500 nM
MYC mRNA; KMM1
  log2FC (MYC): -0.48
MYC mRNA; KMS28BM
  log2FC (MYC): -0.63
MYC mRNA; LP1
  log2FC (MYC): -1.07
MYC mRNA; MOLP8
  log2FC (MYC): -0.64
MYC mRNA; OPM2
  log2FC (MYC): -0.71
MYC mRNA; RPMI8226
  log2FC (MYC): -0.49
MYC mRNA; RS411
  log2FC (MYC): -0.56
THP-1
  GI50: 2850 nM
MOLT4
  GI50: 7620 nM
[1]
  IC50: 2100 ± 300 nM
LP-1
  GI50: 780 nM
LP-1; LP1
  log2GI50: -0.36
MOLP-8
  GI50: 2060 nM
MOLP-8; MOLP8
  log2GI50: 1.04
RS4;11
  GI50: 9990 nM
RS4;11; RS411
  log2GI50: 3.32
OPM2
  GI50: 1530 nM
OPM2; OPM2
  log2GI50: 0.61
NCI-H929; H929
  log2GI50: 0.75
NCI-H929
  GI50: 1680 nM
RPMI-8226
  GI50: 3440 nM
RPMI-8226; RPMI8226
  log2GI50: 1.78
KMS28BM
  log2GI50: 1.12
  GI50: 2170 nM
KMM-1
  GI50: 11700 nM
KMM-1; KMM1
  log2GI50: 3.54
AMO-1; AMO1
  log2GI50: 0.85
AMO-1
  GI50: 1800 nM
IRF4 mRNA; AMO1
  log2FC (IRF4): -1.36
IRF4 mRNA; H929
  log2FC (IRF4): -0.75
IRF4 mRNA; OPM-2, OPM2, 6 hr
  IC50: 1100 nM
IRF4 mRNA; LP-1, 6 hr
  IC50: 860 nM
IRF4 mRNA; KMM1
  log2FC (IRF4): -0.53
IRF4 mRNA; KMS28BM
  log2FC (IRF4): -0.93
IRF4 mRNA; LP1
  log2FC (IRF4): -1.23
IRF4 mRNA; LP-1, 2.5 μM
  time to suppression of IRF4 after addition of compound: ≤ 2 h
IRF4 mRNA; MOLP8
  log2FC (IRF4): -1.29
IRF4 mRNA; OPM2
  log2FC (IRF4): -0.98
IRF4 mRNA; RPMI8226
  log2FC (IRF4): -0.55
IRF4 mRNA; RS411
  log2FC (IRF4): -0.31
